These results are taken from PMC12314110, “Evaluation of Potential Effects of CYP3A Inhibition and CYP3A Induction on the Pharmacokinetics of Fruquintinib in Healthy Subjects” (Clinical Pharmacology in Drug Development, 2025).

Data set [1] in a line: Safety assessments (adverse events) in healthy subjects. It counts as in vivo, human. The conditions noted are these: Part B, after rifampin alone (Treatment Period 2); back pain, 1/14 subjects, mild (Grade 1), unrelated to study treatment. As to the method: Safety was assessed by evaluation of adverse events (AEs), serious AEs, AEs of special interest, physical examinations, vital signs, single 12‐lead electrocardiograms and cardiac monitoring, and clinical laboratory data. All AEs were coded using the Medical Dictionary for Regulatory Activities Version 23.0, and their severity was graded using the National Cancer Institute Common Terminology Criteria for Adverse Events Version 5.0.

On the set-up of data set [2]: method as in PMID 9925057. The settings on record: cited from earlier work.

SMILES strings stand for the structures.

As for `CO[C@H]1/C=C/O[C@@]2(C)Oc3c(C)c(O)c4c(O)c(c(/C=N/N5CCN(C)CC5)c(O)c4c3C2=O)NC(=O)/C(C)=C\C=C\[C@H](C)[C@H](O)[C@@H](C)[C@@H](O)[C@@H](C)[C@H](OC(C)=O)[C@@H]1C` [rifampin, reference compound], the “treatment‐emergent AE incidence” value in data set [1] is listed as 7.1%. The “reduction of absorption when ingested with food” value in data set [2] is “approximately 30%”.
